Measured values taken from ChEMBL document CHEMBL1201862, “PubChem BioAssay data set” (2004).
Active and inactive are the calls of the source.

How the values were obtained:
[1] = molecular target: T1, Estrogen receptor (Homo sapiens, UniProt P03372);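 further: potency for inhibiting coactivator peptide recruitment to the receptor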
T1 sequence (P03372 whole entry): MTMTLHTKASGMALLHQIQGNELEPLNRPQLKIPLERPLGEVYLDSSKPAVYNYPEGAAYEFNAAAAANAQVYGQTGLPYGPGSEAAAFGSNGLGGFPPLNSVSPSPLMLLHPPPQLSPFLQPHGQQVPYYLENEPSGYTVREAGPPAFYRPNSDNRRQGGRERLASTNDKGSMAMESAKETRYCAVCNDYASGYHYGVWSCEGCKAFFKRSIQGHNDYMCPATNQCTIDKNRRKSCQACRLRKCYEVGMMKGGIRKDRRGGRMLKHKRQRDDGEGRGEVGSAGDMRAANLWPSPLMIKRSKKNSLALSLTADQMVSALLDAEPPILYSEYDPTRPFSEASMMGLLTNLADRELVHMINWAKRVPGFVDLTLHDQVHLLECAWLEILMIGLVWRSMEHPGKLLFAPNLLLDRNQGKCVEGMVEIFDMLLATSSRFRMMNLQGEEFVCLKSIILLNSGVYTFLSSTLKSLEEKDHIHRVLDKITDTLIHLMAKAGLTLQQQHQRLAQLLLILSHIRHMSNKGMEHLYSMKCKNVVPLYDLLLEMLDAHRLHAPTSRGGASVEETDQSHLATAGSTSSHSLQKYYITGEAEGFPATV

[2] = molecular target: Alkaline phosphatase, placental type (Homo sapiens, UniProt P05187); test: human placental alkaline phosphatase inhibition – biochemical, luminescence, confirmation (AID 1512); type: functional
[3] = molecular target: T2, Alkaline phosphatase, tissue-nonspecific isozyme (Homo sapiens, UniProt P05186); test: potency against alkaline phosphatase TNAP – biochemical, luminescent, dose response, SAR follow-up (AID 1056)
T2 sequence (P05186 whole entry): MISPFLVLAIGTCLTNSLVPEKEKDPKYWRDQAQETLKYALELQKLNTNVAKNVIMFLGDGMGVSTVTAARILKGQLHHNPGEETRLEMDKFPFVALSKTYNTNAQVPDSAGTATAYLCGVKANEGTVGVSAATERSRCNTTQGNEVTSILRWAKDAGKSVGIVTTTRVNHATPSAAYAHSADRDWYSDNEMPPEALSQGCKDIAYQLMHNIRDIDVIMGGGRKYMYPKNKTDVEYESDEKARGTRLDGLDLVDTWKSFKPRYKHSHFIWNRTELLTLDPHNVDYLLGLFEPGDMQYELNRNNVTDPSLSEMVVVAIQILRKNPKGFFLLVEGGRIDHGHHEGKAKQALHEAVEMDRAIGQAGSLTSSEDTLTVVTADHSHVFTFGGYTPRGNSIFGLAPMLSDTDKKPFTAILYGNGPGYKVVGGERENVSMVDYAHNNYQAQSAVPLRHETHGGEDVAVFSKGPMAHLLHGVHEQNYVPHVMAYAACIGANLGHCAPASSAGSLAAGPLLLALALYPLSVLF

[4] = molecular target: T3, Delta-type opioid receptor (Homo sapiens, UniProt P41143); test: HTS Image-Based Screen for Antagonists of the DOR Receptor. [Related pubchem assays (depositor defined):AID1777, AID1785, AID1786, AID2133]; type: functional
T3 sequence (P41143 whole entry): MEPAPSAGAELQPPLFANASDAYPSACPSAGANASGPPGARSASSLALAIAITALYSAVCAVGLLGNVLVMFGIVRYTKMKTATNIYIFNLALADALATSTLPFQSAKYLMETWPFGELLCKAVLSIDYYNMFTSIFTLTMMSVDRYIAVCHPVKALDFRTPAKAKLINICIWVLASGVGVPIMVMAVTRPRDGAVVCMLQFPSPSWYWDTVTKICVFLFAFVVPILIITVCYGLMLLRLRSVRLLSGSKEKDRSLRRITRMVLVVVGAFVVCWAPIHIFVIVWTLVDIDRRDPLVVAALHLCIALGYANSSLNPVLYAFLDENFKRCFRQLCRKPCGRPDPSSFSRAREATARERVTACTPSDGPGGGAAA

[5] = molecular target: T4, Mu-type opioid receptor (Homo sapiens, UniProt P35372); test: HTS Image-Based Screen for Agonists of the MOR Receptor. [Related pubchem assays (depositor defined):AID1777, AID1785, AID1786, AID2133]; type: functional
T4 sequence (P35372 whole entry): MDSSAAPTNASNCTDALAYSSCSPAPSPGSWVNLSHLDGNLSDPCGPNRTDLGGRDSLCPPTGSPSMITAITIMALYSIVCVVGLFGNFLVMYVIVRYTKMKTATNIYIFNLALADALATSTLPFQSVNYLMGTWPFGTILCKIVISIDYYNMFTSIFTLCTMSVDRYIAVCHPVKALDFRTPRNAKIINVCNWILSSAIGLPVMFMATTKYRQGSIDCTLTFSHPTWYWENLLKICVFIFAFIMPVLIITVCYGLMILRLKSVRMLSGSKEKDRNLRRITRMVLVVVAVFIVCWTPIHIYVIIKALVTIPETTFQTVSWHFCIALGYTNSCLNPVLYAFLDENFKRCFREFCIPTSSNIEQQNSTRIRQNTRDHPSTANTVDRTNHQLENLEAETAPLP

[6] = molecular target: T3, Delta-type opioid receptor; test: HTS Image-Based Screen for Agonists of the DOR Receptor. [Related pubchem assays (depositor defined):AID1777, AID1786, AID2133]; type: functional
[7] = molecular target: T5, Kappa-type opioid receptor (Homo sapiens, UniProt P41145); type: functional
T5 sequence (P41145 whole entry): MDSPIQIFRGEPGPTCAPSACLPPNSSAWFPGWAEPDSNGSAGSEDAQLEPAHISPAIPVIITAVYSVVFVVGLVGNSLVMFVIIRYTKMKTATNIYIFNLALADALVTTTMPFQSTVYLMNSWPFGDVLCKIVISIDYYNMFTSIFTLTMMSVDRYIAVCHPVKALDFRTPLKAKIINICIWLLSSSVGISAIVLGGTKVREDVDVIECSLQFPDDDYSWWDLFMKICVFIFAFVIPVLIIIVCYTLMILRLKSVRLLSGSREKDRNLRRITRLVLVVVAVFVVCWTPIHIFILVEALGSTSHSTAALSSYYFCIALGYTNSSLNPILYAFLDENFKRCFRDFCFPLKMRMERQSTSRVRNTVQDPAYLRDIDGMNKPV

[8] = molecular target: T5, Kappa-type opioid receptor; type: functional; remark: listed apart in the source
[9] = molecular target: T5, Kappa-type opioid receptor; test: SAR analysis of small molecule agonists of the kappa opioid receptor via a luminescent beta-arrestin assay. [Related pubchem assays (depositor defined):AID1777, AID1786, AID1966, AID2133, AID2136, AID2348, AID2352, AID2357, AID2359, AID2370, AID2420, AID2478, AID2491, AID2492, AID2493, AID2497, AID2498, AID2500, AID449737, AID488822, AID488842]; type: functional
[10] = molecular target: T4, Mu-type opioid receptor; test: mu opioid receptor activators, image-based, SAR follow-up (AID 2352); type: functional
[11] = molecular target: T3, Delta-type opioid receptor; test: DOR agonists, SAR follow-up, image-based (AID 2370); type: functional
[12] = molecular target: T5, Kappa-type opioid receptor; test: kappa opioid receptor blockers, image-based, SAR follow-up (AID 2348); type: functional
[13] = molecular target: T4, Mu-type opioid receptor; test: mu opioid receptor blockers – image-based, SAR follow-up (AID 2420); type: functional;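 further: compounds added before stimulation of receptor with agonist DAMGO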
[14] = molecular target: T5, Kappa-type opioid receptor; test: kappa opioid receptor activation potency – imaging, image-based, SAR follow-up (AID 2359); type: functional
[15] = molecular target: T3, Delta-type opioid receptor; test: delta opioid receptor blockers – image-based, SAR follow-up (AID 2357); type: functional
[16] = molecular target: Eukaryotic translation initiation factor 4H (Homo sapiens, UniProt Q15056); test: eIF4H binding inhibition – biochemical, uHTS, fluorescence polarization, translation initiation inhibitor project, primary screen (AID 2012)
[17] = molecular target: Polyadenylate-binding protein 1 (Homo sapiens, UniProt P11940); test: blockers of PABP interaction with poly(A) – biochemical, fluorescence polarization, […] (AID 2014)
[18] = molecular target: DNA dC->dU-editing enzyme APOBEC-3A (Homo sapiens, UniProt P31941); test: Dose Response confirmation of small molecule APOBEC3A DNA Deaminase Inhibitors via a fluorescence-based single-stranded DNA deaminase assay. [Related pubchem assays (depositor defined):AID493011, AID493024]; type: functional
[19] = molecular target: DNA dC->dU-editing enzyme APOBEC-3G (Homo sapiens, UniProt Q9HC16); type: functional;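 further: Dose-response counterscreen measuring inhibition of APOBEC3G DNA deaminase activity, run while confirming APOBEC3A inhibitors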
[20] = molecular target: T6, Type-1 angiotensin II receptor (Homo sapiens, UniProt P30556); test: agonist activity at AGTR1 – cell-based, uHTS hits, selectivity assay for APJ receptor agonist project, dose response (AID 488865); type: functional;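 further: beta-arrestin recruitment to AT1 measured by enzyme fragment complementation luminescence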
T6 sequence (P30556 whole entry): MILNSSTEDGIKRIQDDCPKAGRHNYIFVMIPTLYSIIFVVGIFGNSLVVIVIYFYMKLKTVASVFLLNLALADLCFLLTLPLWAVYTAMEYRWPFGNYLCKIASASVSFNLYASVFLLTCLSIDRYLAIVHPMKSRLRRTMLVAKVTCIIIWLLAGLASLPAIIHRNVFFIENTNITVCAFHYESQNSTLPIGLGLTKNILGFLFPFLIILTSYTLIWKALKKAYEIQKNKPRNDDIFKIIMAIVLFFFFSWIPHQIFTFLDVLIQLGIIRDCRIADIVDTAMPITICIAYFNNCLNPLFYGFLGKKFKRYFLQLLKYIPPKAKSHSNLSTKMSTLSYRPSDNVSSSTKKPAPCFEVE

[21] = tested on: Vero; test: cells; type: functional; conditions: Chlorocebus sabaeus
[22] = molecular target: T7, Voltage-gated N-type calcium channel alpha-1B subunit/Amyloid beta A4 precursor protein-binding family A member 1 (Homo sapiens, UniProt Q00975+Q02410); type: protein assay
T7 sequence (Q00975 whole entry): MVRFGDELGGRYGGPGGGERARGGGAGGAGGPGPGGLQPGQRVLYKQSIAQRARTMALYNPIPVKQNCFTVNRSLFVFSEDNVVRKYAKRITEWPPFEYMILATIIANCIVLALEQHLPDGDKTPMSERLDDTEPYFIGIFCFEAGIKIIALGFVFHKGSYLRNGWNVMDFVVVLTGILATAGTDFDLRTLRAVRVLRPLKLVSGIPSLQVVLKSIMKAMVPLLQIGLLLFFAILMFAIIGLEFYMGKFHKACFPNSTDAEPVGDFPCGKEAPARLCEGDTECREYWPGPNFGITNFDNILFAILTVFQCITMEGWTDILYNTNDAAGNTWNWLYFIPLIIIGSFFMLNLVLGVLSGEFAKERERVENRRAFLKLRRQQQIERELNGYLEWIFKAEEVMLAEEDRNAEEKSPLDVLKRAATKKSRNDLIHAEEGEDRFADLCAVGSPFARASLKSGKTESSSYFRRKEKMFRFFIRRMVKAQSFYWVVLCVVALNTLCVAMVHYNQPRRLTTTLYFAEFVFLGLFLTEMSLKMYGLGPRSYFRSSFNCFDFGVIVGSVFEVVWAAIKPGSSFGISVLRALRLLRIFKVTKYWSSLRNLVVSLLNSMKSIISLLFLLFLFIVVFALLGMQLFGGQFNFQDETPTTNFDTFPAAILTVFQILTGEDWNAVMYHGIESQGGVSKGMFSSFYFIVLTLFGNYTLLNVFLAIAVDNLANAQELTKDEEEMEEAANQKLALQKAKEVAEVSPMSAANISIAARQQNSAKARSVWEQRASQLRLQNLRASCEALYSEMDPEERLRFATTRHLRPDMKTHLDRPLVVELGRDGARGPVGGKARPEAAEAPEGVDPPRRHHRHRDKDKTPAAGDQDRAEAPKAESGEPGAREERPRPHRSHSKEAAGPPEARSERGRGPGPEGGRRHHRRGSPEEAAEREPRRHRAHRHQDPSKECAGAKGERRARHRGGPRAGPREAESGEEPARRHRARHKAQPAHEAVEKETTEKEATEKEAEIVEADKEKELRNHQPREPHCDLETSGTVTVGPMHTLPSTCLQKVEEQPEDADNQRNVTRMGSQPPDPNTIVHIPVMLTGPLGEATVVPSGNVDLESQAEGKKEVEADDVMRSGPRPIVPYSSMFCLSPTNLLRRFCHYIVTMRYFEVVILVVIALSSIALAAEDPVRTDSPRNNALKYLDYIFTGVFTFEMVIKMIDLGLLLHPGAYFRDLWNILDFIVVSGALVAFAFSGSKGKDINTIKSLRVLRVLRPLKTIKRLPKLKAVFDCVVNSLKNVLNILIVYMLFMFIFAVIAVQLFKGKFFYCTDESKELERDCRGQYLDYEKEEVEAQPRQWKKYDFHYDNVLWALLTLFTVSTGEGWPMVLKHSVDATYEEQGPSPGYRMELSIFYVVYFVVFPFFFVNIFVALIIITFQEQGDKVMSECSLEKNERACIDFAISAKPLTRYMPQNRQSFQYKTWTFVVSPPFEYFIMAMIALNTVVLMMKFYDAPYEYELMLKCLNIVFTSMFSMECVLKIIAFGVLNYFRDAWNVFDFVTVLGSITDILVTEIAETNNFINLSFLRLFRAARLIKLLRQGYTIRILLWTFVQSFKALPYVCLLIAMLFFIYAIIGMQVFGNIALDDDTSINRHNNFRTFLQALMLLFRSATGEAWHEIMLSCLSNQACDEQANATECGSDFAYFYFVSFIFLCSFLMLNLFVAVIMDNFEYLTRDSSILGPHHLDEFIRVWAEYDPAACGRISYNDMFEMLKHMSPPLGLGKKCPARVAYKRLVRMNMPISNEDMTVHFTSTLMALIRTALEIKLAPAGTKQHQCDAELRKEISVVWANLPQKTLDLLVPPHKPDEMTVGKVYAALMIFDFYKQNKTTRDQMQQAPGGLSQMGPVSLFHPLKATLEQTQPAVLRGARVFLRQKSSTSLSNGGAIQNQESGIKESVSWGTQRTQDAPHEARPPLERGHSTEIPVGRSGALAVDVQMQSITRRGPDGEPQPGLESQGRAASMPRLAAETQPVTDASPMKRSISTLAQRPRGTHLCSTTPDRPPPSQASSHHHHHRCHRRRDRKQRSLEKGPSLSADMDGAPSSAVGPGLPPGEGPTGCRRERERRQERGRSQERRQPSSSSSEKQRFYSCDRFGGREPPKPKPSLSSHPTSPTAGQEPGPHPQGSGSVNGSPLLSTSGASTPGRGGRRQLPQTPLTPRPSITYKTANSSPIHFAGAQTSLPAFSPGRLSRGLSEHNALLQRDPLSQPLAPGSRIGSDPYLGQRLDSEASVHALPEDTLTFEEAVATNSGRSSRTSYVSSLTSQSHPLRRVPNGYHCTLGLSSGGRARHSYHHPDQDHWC
T7 sequence (Q02410 whole entry): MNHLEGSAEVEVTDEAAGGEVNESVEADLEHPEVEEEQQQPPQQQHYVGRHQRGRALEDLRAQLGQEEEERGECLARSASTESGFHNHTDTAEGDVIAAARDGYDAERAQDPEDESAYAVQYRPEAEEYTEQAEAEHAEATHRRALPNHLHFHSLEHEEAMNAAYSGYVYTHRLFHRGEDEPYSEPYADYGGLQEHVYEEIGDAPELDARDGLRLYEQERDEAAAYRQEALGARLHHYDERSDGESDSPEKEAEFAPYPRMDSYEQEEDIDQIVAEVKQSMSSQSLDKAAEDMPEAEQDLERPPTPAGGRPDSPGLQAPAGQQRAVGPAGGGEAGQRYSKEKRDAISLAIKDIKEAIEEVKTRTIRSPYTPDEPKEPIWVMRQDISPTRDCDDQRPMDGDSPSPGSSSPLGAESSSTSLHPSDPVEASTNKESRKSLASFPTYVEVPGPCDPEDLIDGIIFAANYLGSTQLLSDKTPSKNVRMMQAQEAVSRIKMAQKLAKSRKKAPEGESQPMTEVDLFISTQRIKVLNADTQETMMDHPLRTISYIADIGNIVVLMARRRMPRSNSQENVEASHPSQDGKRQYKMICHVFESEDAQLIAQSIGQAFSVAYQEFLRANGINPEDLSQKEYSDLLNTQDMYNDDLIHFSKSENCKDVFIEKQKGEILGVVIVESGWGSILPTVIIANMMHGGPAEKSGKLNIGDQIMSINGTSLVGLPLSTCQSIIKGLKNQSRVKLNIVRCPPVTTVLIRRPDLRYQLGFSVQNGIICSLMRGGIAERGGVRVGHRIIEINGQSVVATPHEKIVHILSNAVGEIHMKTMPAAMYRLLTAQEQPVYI

[23] = molecular target: T7, Voltage-gated N-type calcium channel alpha-1B subunit/Amyloid beta A4 precursor protein-binding family A member 1; type: protein assay; remark: listed apart in the source
[24] = molecular target: Phosphomannomutase 2 (Homo sapiens, UniProt O15305); test: Counter screen SAR assay for PMM2 inhibitors via a fluorescence intensity assay. [Related pubchem assays (depositor defined):AID1545, AID1574]
[25] = Trypanosoma cruzi growth suppression in host cells – NIH3T3 host cells, beta-gal luminescence, confirmation (AID 2044); type: functional, cell-based;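 further: intracellular parasites grown in NIH/3T3 mouse fibroblasts as host cells; luminescent beta-galactosidase reporter signal from transgenic T. cruzi replicating inside host cells; inhibitors lower the luminescence signal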
[26] = viability of PTEN-deleted HCT116 cells – cell-based, HCT116 PTEN knockout, dose response (AID 1047); type: functional;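 further: HCT116 colon tumor cells with PTEN knocked out; cells exposed to compound for 60 hours before readout; potency for loss of cell viability measured by luminescence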
[27] = NIH3T3 cell viability loss – ATP luminescence, mouse fibroblasts, counter-screen, dose response (AID 2010); type: functional, cell-based;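 further: cells exposed to compound for about 90 hours before reading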
[28] = viability of HCT116 lacking mutant beta-catenin – cell-based, human colon tumor, dose response (AID 1045); type: functional;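 further: HCT116 colon tumor cells with beta catenin knocked out; cells exposed to compound for 60 hours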
[29] = NIH/3T3 cell viability loss – mouse embryonic fibroblasts, dry powder, set 2, cytotoxicity control, dose response (AID 493247); type: functional, cell-based; conditions: Fibroblast
[30] = tested on: Trypanosoma cruzi; test: anti-trypanosomal activity in host cells – cell-based, plate reader, dry powder, set 3, dose response (AID 493197); type: functional
[31] = molecular target: T8, Microphthalmia-associated transcription factor (Homo sapiens, UniProt O75030); test: reducers of TRPM1 reporter luminescence, concentration series – cell-based, SK-MEL-5, cherry-picked, set 3, MITF inhibitor project, dose response (AID 493073); type: functional;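 further: SK-MEL-5 melanoma cells with luciferase driven by the MITF target TRPM1 promoter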
T8 sequence (O75030 whole entry): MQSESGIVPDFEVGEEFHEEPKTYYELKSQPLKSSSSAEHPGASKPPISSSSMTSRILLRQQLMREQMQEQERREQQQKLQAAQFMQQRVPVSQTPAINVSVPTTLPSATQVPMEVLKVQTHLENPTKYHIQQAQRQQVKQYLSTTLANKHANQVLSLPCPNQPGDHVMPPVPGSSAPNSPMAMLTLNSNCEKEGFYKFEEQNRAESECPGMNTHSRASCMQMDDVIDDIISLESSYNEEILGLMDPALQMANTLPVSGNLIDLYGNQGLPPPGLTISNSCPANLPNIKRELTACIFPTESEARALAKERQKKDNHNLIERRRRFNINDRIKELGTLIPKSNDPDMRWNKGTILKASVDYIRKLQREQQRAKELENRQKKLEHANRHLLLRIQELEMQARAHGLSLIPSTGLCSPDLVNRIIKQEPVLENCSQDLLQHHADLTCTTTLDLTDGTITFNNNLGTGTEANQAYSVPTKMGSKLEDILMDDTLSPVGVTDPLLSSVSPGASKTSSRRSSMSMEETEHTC

[32] = molecular target: T9, Cannabinoid receptor 2 (Homo sapiens, UniProt P34972); test: SAR analysis of antagonists of the Cannabinoid Receptor 2 using an Image-Based Assay - Set 2. [Related pubchem assays (depositor defined):AID1961, AID1965]; type: functional
T9 sequence (P34972 whole entry): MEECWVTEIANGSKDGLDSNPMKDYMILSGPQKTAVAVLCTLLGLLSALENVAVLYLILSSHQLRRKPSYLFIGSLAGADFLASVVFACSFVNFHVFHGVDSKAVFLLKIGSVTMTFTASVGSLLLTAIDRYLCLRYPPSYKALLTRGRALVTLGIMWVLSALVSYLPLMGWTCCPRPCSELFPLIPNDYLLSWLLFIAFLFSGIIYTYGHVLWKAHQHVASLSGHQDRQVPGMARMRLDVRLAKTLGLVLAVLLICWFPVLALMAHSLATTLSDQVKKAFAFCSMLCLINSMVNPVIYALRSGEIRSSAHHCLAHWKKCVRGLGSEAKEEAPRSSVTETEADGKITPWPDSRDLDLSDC

[33] = molecular target: T10, G-protein coupled receptor 55 (Homo sapiens, UniProt Q9Y2T6); test: SAR analysis of selective Agonists of GPR55 using an Image-Based Assay - Set 2. [Related pubchem assays (depositor defined):AID1961, AID1965]; type: functional
[34] = molecular target: T9, Cannabinoid receptor 2; test: SAR analysis of agonists of the Cannabinoid Receptor 2 using an Image-Based Assay - Set 2. [Related pubchem assays (depositor defined):AID1961, AID1965]; type: functional
[35] = molecular target: T11, G-protein coupled receptor 35 (Homo sapiens, UniProt Q9HC97); test: SAR analysis of Agonists of the GPR35 Receptor using an Image-Based Assay - Set 3. [Related pubchem assays (depositor defined):AID1961, AID1965]; type: functional
T11 sequence (Q9HC97 whole entry): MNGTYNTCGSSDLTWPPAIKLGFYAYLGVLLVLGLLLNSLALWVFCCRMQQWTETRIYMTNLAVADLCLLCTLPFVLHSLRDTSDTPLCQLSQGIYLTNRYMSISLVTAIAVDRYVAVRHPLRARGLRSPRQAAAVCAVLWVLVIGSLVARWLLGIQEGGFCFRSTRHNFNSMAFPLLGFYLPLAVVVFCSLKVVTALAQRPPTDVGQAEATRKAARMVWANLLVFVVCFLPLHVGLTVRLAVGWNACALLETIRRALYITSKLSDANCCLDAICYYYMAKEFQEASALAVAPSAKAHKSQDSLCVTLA

[36] = molecular target: T12, Cannabinoid receptor 1 (Homo sapiens, UniProt P21554); test: SAR analysis of antagonists of the Cannabinoid Receptor 1 using an Image-Based Assay - Set 3. [Related pubchem assays (depositor defined):AID1961, AID1965]; type: functional
[37] = molecular target: T12, Cannabinoid receptor 1; test: SAR analysis of agonists of the Cannabinoid Receptor 1 using an Image-Based Assay - Set 3. [Related pubchem assays (depositor defined):AID1961, AID1965]; type: functional
[38] = molecular target: T11, G-protein coupled receptor 35; test: SAR analysis of Antagonists of the GPR35 Receptor using an Image-Based Assay - Set 4. [Related pubchem assays (depositor defined):[…]]; type: functional
[39] = molecular target: T10, G-protein coupled receptor 55; test: inhibition of LPI-stimulated GPR55 beta-arrestin translocation – imaging, U2OS, beta-arrestin-GFP, LPI agonist, primary screen (AID 2013); type: functional;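 further: antagonist potency measured as reduced agonist-driven arrestin aggregation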
[40] = microbe, parasite or virus in culture; type: functional; conditions: Mycobacterium tuberculosis

## CNc1nnc(-c2cc3cc(Cl)ccc3oc2=O)s1
[1]
  IC50: 11.1 µM (active)
[2]
  IC50: > 100 µM (inactive)
[3]
  IC50: > 100 µM (inactive)

## O=C(c1ccccn1)N(Cc1ccco1)C1(C(=O)NC2CCCCC2)CCCCC1
[4]
  IC50: > 32 µM (inactive)
[5]
  EC50: > 32 µM (inactive)
[6]
  EC50: > 32 µM (inactive)
[7]
  EC50: < 0.5 µM
[8]
  EC50: 0.22 µM
[9]
  EC50: 0.821 µM (active)
[10]
  EC50: > 32 µM (inactive)
[11]
  EC50: > 32 µM (inactive)
[12]
  IC50: > 32 µM (inactive)
[13]
  IC50: > 32 µM (inactive)
[14]
  EC50: 0.125 µM (active)
[15]
  IC50: > 32 µM (inactive)

## Oc1ccccc1C=N[n+]1ccccc1
[16]
  IC50: > 100 µM (inactive)
[17]
  IC50: 5.32 µM (active)
[18]
  IC50: 2.88 µM (active)
[19]
  IC50: 5.33 µM (active)

## CCN(CC)CCNC(=O)c1cc(-c2cccnc2)nc2ccc(S(=O)(=O)N3CCC(C)CC3)cc12
[20]
  EC50: > 100 µM (inactive)
[21]
  CC50: 9.06 µM (active)

## O=C(O)Cc1sc(Nc2ccc(F)cc2)nc1-c1cccs1
[22]
  IC50: 9.21 µM (active)
[23]
  IC50: > 50 µM (inactive)

## O=c1c2ccccc2sn1-c1cccc(I)c1
[24]
  IC50: > 100 µM (inactive)

## O=C(COc1ccccc1)N/N=C/c1ccc([N+](=O)[O-])o1
[25]
  EC50: 0.122 µM (active)
[26]
  EC50: 7.39 µM (active)
[27]
  EC50: > 60 µM (not active)
[28]
  EC50: 6.95 µM (active)
[29]
  AC50: 21.2 µM (active)
[30]
  AC50: 0.317 µM (active)
[31]
  AC50: 21.5 µM (active)

## Cc1cc2cc3c(cc2n2c(SCC(=O)Nc4nc(-c5ccccc5)cs4)nnc12)OCCO3
[32]
  IC50: > 32 µM (inactive)
[33]
  EC50: 4.42 µM (active)
[34]
  EC50: > 32 µM (inactive)
[35]
  EC50: > 32 µM (inactive)
[36]
  IC50: 12.7 µM (inactive)
[37]
  EC50: > 32 µM (inactive)
[38]
  IC50: > 32 µM (inactive)

## CC(C)(C)c1nn(-c2ccccc2)c2[nH]c(=O)c(CNCc3ccc4c(c3)OCO4)cc12
[39]
  IC50: 2.67 µM (active)
[40]
  CC50: 27.2 µM (active)
